Test results reported in patent publication US10472612B2, “Cell culture system” (PRESIDENT AND FELLOWS OF HARVARD COLLEGE, priority 2011, dated 2019).

Key:
[1] = tested on: Caco-2 cell monolayer alone or with HMVE cell monolayer; test: Molecular permeability through cell monolayer in gut-on-a-chip with or without mechanical strain (Example 1); type: in vitro ADME, human; conditions: Caco-2 monolayer alone or with HMVE monolayer; cyclic stretching 0.15 Hz, 30 μL/h
Protocol: In a fluidic condition (N=4), constant perfusion flow of 30 μL/h was conducted without any stretching motions (i.e. shear stresses only). […] In a static condition (N=4), transport experiment was performed in a Transwell system. Error bars indicate standard errors.
In a fluidic condition (N=2), constant perfusion flow at 30 μL/h was conducted without any stretching motions (i.e. shear stresses only). […] In a static condition (N=4), transport experiments were performed in the Transwell system. Error bars indicate standard errors.
In a fluidic condition (N=5), constant perfusion flow of 30 μL/h was conducted without any stretching motions (i.e. shear stresses only). […] In a static condition (N=3), transport experiment was performed in a Transwell system. Error bars indicate standard errors.
After the cell monolayers were fully confluent and stabilized under defined fluidic conditions, transport experiments were conducted. […] The co-cultured monolayers of Caco-2 and HMVE cells experienced with cyclic deformations for 12 hours or more prior to initiating the transport or barrier functional analysis experiments. […] Electrical resistances between the top and the bottom microchannels were monitored using an Ag/AgCl electrode equipped with an Ohm meter, and the resistance was converted into TEER value by multiplying values by the surface area of the cell monolayer. […]

Caco-2 cell monolayer [2] = type: cell-based; conditions: flow 40 μL/hr, cyclic strain 10%, 0.15 Hz
Protocol: Epithelial Barrier Measurements. The integrity of the human intestinal epithelial cell monolayer resulting from establishment of apical tight junctions was evaluated by staining for the tight junctional protein, occluidin,^29 using confocal immunofluorescence microscopy and by measuring trans-epithelial electrical resistance (TEER). In Transwell cultures, TEER was measured using a Millicell ERS meter (Millipore, Bedford, Mass.) coupled to a chopstick-like electrode, and TEER values (Ω cm^2) were determined by subtracting the baseline resistance value measured in the absence of cells and then multiplying the remaining ‘specific’ resistance value (Ω) times the cell culture surface area (cm^2). […] Again, the baseline resistance value measured in the absence of cells was subtracted from results obtained with the Caco-2 monolayer, and specific TEER values were determined by multiplying the specific resistance times the total cell culture surface area on the PDMS membrane (Table 1).

Caco-2 cell monolayer [3] = test: LGG co-culture on Caco-2 monolayer in static Transwell; type: cell-based, human; conditions: first day of co-culture, not measurable after 48 hours
Protocol: Epithelial Barrier Measurements. The integrity of the human intestinal epithelial cell monolayer resulting from establishment of apical tight junctions was evaluated by staining for the tight junctional protein, occluidin,^29 using confocal immunofluorescence microscopy and by measuring trans-epithelial electrical resistance (TEER). In Transwell cultures, TEER was measured using a Millicell ERS meter (Millipore, Bedford, Mass.) coupled to a chopstick-like electrode, and TEER values (Ω cm^2) were determined by subtracting the baseline resistance value measured in the absence of cells and then multiplying the remaining ‘specific’ resistance value (Ω) times the cell culture surface area (cm^2). The TEER of the Caco-2 monolayer cultured in the Gut-on-a-Chip was measured using a voltage-ohm meter (87V Industrial Multimeter, Fluke Corporation, Everett, Wash.) coupled to Ag/AgCl electrode wires (0.008″ in diameter; A-M systems, Inc., Sequim, Wash.); control studies confirmed that similar TEER results were obtained with both methods. Again, the baseline resistance value measured in the absence of cells was subtracted from results obtained with the Caco-2 monolayer, and specific TEER values were determined by multiplying the specific resistance times the total cell culture surface area on the PDMS membrane (Table 1).
Microbial Studies. […]

Row | Substance | effect of mechanical strain on paracellular transport [1] | barrier integrity (TEER) during co-culture (Caco-2 cell monolayer [2]) | TEER during co-culture (Caco-2 cell monolayer [3])
1 | Lucifer yellow | increased | – | –
2 | Lactobacillus rhamnosus GG [LGG] | – | improved | dissipated
